Assays:
[1] = target: T1, recombinant human transglutaminase 2 (Homo sapiens, UniProt P21980); assay: Transglutaminase assay: incorporation of dansylcadaverine into dimethylcasein (DCC-assay); assay type: biochemical; settings: recombinant human TG2 10 nM, dansylcadaverine/dimethylcasein; read-out: IC50 TG2
T1 sequence (P21980 1-687): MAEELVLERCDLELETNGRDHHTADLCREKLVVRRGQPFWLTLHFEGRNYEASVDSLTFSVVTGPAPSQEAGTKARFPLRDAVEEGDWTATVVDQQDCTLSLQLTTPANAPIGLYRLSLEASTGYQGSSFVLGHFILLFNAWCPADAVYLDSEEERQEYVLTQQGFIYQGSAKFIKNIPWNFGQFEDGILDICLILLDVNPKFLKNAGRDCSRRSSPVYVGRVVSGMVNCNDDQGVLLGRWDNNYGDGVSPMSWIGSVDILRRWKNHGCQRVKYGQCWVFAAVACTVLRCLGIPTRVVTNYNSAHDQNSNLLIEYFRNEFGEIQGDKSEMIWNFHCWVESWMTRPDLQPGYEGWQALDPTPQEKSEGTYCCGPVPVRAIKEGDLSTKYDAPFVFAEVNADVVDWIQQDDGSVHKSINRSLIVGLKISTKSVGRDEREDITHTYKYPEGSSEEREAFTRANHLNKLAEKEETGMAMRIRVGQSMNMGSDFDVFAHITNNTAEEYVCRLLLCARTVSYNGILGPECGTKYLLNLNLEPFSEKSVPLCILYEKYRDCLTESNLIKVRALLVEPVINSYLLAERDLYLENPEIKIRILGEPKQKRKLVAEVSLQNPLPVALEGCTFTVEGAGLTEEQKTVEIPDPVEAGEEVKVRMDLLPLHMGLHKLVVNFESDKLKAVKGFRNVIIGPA
Summary of the method: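 Recombinant human TG2 (10 nM final) incorporates dansylcadaverine (16.7 μM) into N,N-dimethylcasein (4 μM) in Tris-HCl buffer, pH 8.0, with 10 mM CaCl2 and 10 mM glutathione. Fluorescence (λex 330, λem 500 nm) followed 30 min. The slope between 20–30 min gives activity versus DMSO control, and IC50 comes from the concentration–activity plot.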

[2] = Log D by shake flask method (octanol / PBS pH 7.4, HPLC); assay type: physicochemical; settings: octanol / PBS pH 7.4, shake flask; read-out: logD
Summary of the method: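 Shake-flask partitioning of compound between octanol and PBS at pH 7.4, with phase concentrations quantified by HPLC. The value reported is Log D.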

[3] = Caco-2 permeability assay (CacoReady kit); assay type: in vitro ADME; settings: human
Summary of the method: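 Apparent permeability coefficients (Papp) were measured across Caco-2 cell barriers using a ready-to-use kit run per the supplier's protocol. Values serve as a predictor of oral/intestinal bioavailability.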

SMILES	IC50 [1] [nM]	logD [2]	Papp [3] [×10⁻⁶ cm/s]
CCNC(=O)C(=O)CC[C@H](NC(=O)c1ccc2c(c1)CCCN2)C(=O)Nc1cccn(CC(=O)NC23CCC(C2)C3)c1=O [Compound I-104, (S)-N1-(1-(2-(bicyclo[2.1.1]hexan-1-ylamino)-2-oxoethyl)-2-oxo-1,2-dihydropyridin-3-yl)-N6-ethyl-5-oxo-2-(1,2,3,4-tetrahydroquinoline-6-carboxamido)hexanediamide]	600 to 3500	< 1	< 1
CCNC(=O)C(=O)CC[C@H](NC(=O)c1cncc(C(=O)O)c1)C(=O)Nc1cccn(CC(=O)NC(C)C23CC4CC(CC(C4)C2)C3)c1=O (stereo partly drawn) [Compound I-66]	150 to 600	3 to 5	< 1
CCNC(=O)C(=O)CC[C@H](NC(=O)c1oc2ccccc2c1C)C(=O)Nc1cccn(CC(=O)N[C@@H]2C[C@H]3CC[C@@H]2C3)c1=O [Compound I-70, (S)-N1-(1-(2-((1R,2R,4S)-bicyclo[2.2.1]heptan-2-ylamino)-2-oxoethyl)-2-oxo-1,2-dihydropyridin-3-yl)-N6-ethyl-2-(3-methylbenzofuran-2-carboxamido)-5-oxohexanediamide]	< 150	1 to 3	1 to 10
CCNC(=O)C(=O)CC[C@H](NC(=O)c1cncn1C)C(=O)Nc1cccn(CC(=O)NC23CC4CC(C2)CC(C(=O)OC)(C4)C3)c1=O [Compound I-11, (S)-N1-ethyl-N6-(1-(2-(3-methyladamantane-3-carboxylate-1-amino)-2-oxoethyl)-2-oxo-1,2-dihydropyridin-3-yl)-5-(1-methyl-1H-imidazole-5-carboxamido)-2-oxohexanediamide]	150 to 600	< 1	< 1
CCNC(=O)C(=O)CC[C@H](NC(=O)c1oc2ccccc2c1C)C(=O)Nc1cccn(CC(=O)N[C@H]2C[C@H]3CC[C@]2(C)C3(C)C)c1=O [Compound I-69, (S)-N1-ethyl-5-(3-methylbenzofuran-2-carboxamido)-2-oxo-N6-(2-oxo-1-(2-oxo-2-((1R,2S,4R)-1,7,7-trimethylbicyclo[2.2.1]heptan-2-ylamino)ethyl)-1,2-dihydropyridin-3-yl)hexanediamide]	150 to 600	3 to 5	1 to 10
CCNC(=O)C(=O)CC[C@H](NC(=O)c1cc2ccccc2s1)C(=O)Nc1cccn(CC(=O)NC2C3CC4CC(C3)CC2C4)c1=O (stereo partly drawn) [Compound I-34, (S)-2-(benzo[b]thiophene-2-carboxamido)-N6-ethyl-N1-(1-(2-(2-adamantylamino)-2-oxoethyl)-2-oxo-1,2-dihydropyridin-3-yl)-5-oxohexanediamide]	< 150	3 to 5	1 to 10
CCNC(=O)C(=O)CC[C@H](NC(=O)c1cc2ccc(N(C)C)cc2o1)C(=O)Nc1cccn(CC(=O)NC23CC(C2)C3)c1=O [Compound I-109, (S)-N1-(1-(2-(bicyclo[1.1.1]pentan-1-ylamino)-2-oxoethyl)-2-oxo-1,2-dihydropyridin-3-yl)-2-(6-(dimethylamino)benzofuran-2-carboxamido)-N6-ethyl-5-oxohexanediamide]	150 to 600	< 1	< 1
CCNC(=O)C(=O)CC[C@H](NC(=O)c1sc(Br)cc1C)C(=O)Nc1cccn(CC(=O)NC2C3CC4CC(C3)CC2C4)c1=O (stereo partly drawn) [Compound I-43, (S)-2-(5-bromo-3-methylthiophene-2-carboxamido)-N6-ethyl-N1-(1-(2-(2-adamantylamino)-2-oxoethyl)-2-oxo-1,2-dihydropyridin-3-yl)-5-oxohexanediamide]	< 150	3 to 5	1 to 10
CCNC(=O)C(=O)CC[C@H](NC(=O)c1c(C)ncn1C)C(=O)Nc1cccn(CC(=O)NC23CC4CC(CC(CC)(C4)C2)C3)c1=O [Compound I-17, (S)-2-(1,4-dimethyl-1H-imidazole-5-carboxamido)-N6-ethyl-N1-(1-(2-(3-ethyladamantane-1-amino)-2-oxoethyl)-2-oxo-1,2-dihydropyridin-3-yl)-5-oxohexanediamide]	600 to 3500	1 to 3	< 1
CCNC(=O)C(=O)CC[C@H](NC(=O)c1cc2c(Br)cccc2o1)C(=O)Nc1cccn(CC(=O)NC2C3CC4CC(C3)CC2C4)c1=O (stereo partly drawn) [Compound I-33, (S)-2-(4-bromobenzofuran-2-carboxamido)-N6-ethyl-N1-(1-(2-(2-adamantylamino)-2-oxoethyl)-2-oxo-1,2-dihydropyridin-3-yl)-5-oxohexanediamide]	< 150	3 to 5	1 to 10
CCNC(=O)C(=O)CC[C@H](NC(=O)c1ncns1)C(=O)Nc1cccn(CC(=O)NC23CC(C2)C3)c1=O [Compound I-118, (S)-N1-(1-(2-(bicyclo[1.1.1]pentan-1-ylamino)-2-oxoethyl)-2-oxo-1,2-dihydropyridin-3-yl)-N6-ethyl-5-oxo-2-(1,2,4-thiadiazole-5-carboxamido)hexanediamide]	150 to 600	< 1	< 1

Second part, the compound after the results:

IC50 [1] [nM]	logD [2]	Papp [3] [×10⁻⁶ cm/s]	SMILES
150 to 600	< 1	< 1	CCNC(=O)C(=O)CC[C@H](NC(=O)c1ccc2occc2c1)C(=O)Nc1cccn(CC(=O)NC2C3CC4CC2CC(NC(C)=O)(C4)C3)c1=O (stereo partly drawn) [Compound I-113, (S)-2-(benzofuran-5-carboxamido)-N6-ethyl-N1-(1-(2-(1-acetylamino-4-aminoadamantane)-2-oxoethyl)-2-oxo-1,2-dihydropyridin-3-yl)-5-oxohexanediamide]
< 150	1 to 3	< 1	CCNC(=O)C(=O)CC[C@H](NC(=O)c1cncn1C)C(=O)Nc1cccn(CC(=O)NC23CC4(C)CC(C)(CC(C)(C4)C2)C3)c1=O [Compound I-28, (S)-N1-ethyl-N6-(1-(2-(3,5,7-trimethyl-1-adamantylamino)-2-oxoethyl)-2-oxo-1,2-dihydropyridin-3-yl)-5-(1-methyl-1H-imidazole-5-carboxamido)-2-oxohexanediamide]
150 to 600	1 to 3	1 to 10	CCNC(=O)C(=O)CC[C@H](NC(=O)c1cc2ccccc2n1CC)C(=O)Nc1cccn(CC(=O)NC23CC(C2)C3)c1=O [Compound I-102, (S)-N1-(1-(2-(bicyclo[1.1.1]pentan-1-ylamino)-2-oxoethyl)-2-oxo-1,2-dihydropyridin-3-yl)-N6-ethyl-2-(1-ethyl-1H-indole-2-carboxamido)-5-oxohexanediamide]
< 150	1 to 3	1 to 10	CCNC(=O)C(=O)CC[C@H](NC(=O)c1oc2ccccc2c1C)C(=O)Nc1cccn(CC(=O)N[C@@H]2C[C@@H]3CC[C@H]2C3)c1=O [Compound I-68, (S)-N1-(1-(2-((1S,2R,4R)-bicyclo[2.2.1]heptan-2-ylamino)-2-oxoethyl)-2-oxo-1,2-dihydropyridin-3-yl)-N6-ethyl-2-(3-methylbenzofuran-2-carboxamido)-5-oxohexanediamide]
150 to 600	< 1	< 1	CCNC(=O)C(=O)CC[C@H](NC(=O)C1CCc2ccccc2C1)C(=O)Nc1cccn(CC(=O)NC2C3CC4CC2CC(C(=O)N(C)C)(C4)C3)c1=O (stereo partly drawn) [Compound I-93, (5S)-N1-ethyl-N6-(1-(2-(4-aminoadamantane-N,N-dimethyl-1-carboxamide)-2-oxoethyl)-2-oxo-1,2-dihydropyridin-3-yl)-2-oxo-5-(1,2,3,4-tetrahydronaphthalene-2-carboxamido)hexanediamide]
< 150	3 to 5	1 to 10	CCNC(=O)C(=O)CC[C@H](NC(=O)c1oc(Br)cc1C)C(=O)Nc1cccn(CC(=O)NC2C3CC4CC(C3)CC2C4)c1=O (stereo partly drawn) [Compound I-45, (S)-2-(5-bromo-3-methylfuran-2-carboxamido)-N6-ethyl-N1-(1-(2-(2-adamantylamino)-2-oxoethyl)-2-oxo-1,2-dihydropyridin-3-yl)-5-oxohexanediamide]
600 to 3500	3 to 5	< 1	CCNC(=O)C(=O)CC[C@H](NC(=O)c1csc2nc(C)cn12)C(=O)Nc1cccn(CC(=O)NC2C3CC4CC(C3)CC2C4)c1=O (stereo partly drawn) [Compound I-96, (S)-N1-ethyl-N6-(1-(2-(2-adamantylamino)-2-oxoethyl)-2-oxo-1,2-dihydropyridin-3-yl)-5-(6-methylimidazo[2,1-b]thiazole-3-carboxamido)-2-oxohexanediamide]

— US20240270715A1, “INHIBITORS OF TRANSGLUTAMINASES” (ZEDIRA GMBH, priority 2021, published 2024)
